From patent US5541215A, “Heterocycle-substituted benzenemethanamine derivatives” (Janssen Pharmaceutica N.V., priority 1991, dated 1996) come the findings set out here.

Data set [1] concerns HIV-1. Kind of data set: in-vitro anti-HIV assay: inhibition of HIV-induced cytopathic effect in MT-4 cells (MTT). The conditions noted are these: for SI (selectivity index, ratio of CD50 to ED50): CD50/ED50, MT-4 cells; for EC50: Human immunodeficiency virus 1, MT4, read-out: ED50 (50% effective dose). It counts as cell-based. The protocol:
(§1) A rapid, sensitive and automated assay procedure was used for the in-vitro evaluation of anti-HIV agents. An […] T4-cell line, MT-4, which was previously shown Koyanagi et al., Int. J. Cancer, , 36, 445-451, 1985) to be highly susceptible to and permissive for HIV infection, served as the target cell line. Inhibition of the HIV-induced cytopathic effect was used as the end point. The viability of both HIV- and mock-infected cells was assessed spectrophotometrically via the in-situ reduction of 3-(4,5-dimethylthiazol-2-yl)-2,5-diphenyltetrazolium bromide (MTT). The 50% cytotoxic dose (CD50 in μg/ml) was defined as the concentration of compound that reduced the absorbance of the mock-infectedcontrol sample by 50%. The percent protection achieved by the compound in HIV-infected cells was calculated by the following formula: [formula] whereby (ODT)HIV is the optical density measured with a given concentration of the test compound in HIV-infected cells; (ODC)HIV is the optical density measured for the control untreated HIV-infected cells; (ODC)MOCK is the optical density means for the control untreated mock-infected cells; all optical density values were determined at 540 nm. The dose achieving 50% protection according to the above formula was defined as the 50% effective dose […]). The ratio of CD50 to ED50 was defined as the selectivity index (SI).
(Protection from cytopathic effect is a common read-out in antiviral testing.)

Data set [2] can be described thus: in vitro. The data set is classed as cell-based. The conditions noted are these: human, mt-4 cells. The protocol:
as §1

≈ marks a conversion by molar mass, not a printed value.

As a reminder, the CC50 is the concentration giving 50% cytotoxicity. With `NC(=O)C(Nc1ncccc1[N+](=O)[O-])c1c(Cl)cccc1Cl` (racemic) [compound 1, (±)-2,6-dichloro-α-[(3-nitro-2-pyridinyl)amino]benzeneacetamide], in data set [1], the “SI (selectivity index, ratio of CD50 to ED50)” value was found to be 1299 and the EC50 was 0.03 µg/mL (≈ 0.0879 µM). The molecule further registered a CC50 in data set [2] of 35.8 µg/mL (≈ 105 µM).

Regarding `NC(=O)C(Nc1ccc[nH]c1=O)c1c(Cl)cccc1Cl` (racemic) [compound 8, (±)-2,6-dichloro-α-[(1,2-dihydro-2-oxo-3-pyridinyl)amino]benzeneacetamide], in data set [1], the “SI (selectivity index, ratio of CD50 to ED50)” value turned out to be 1181 and the EC50 came out at 0.18 µg/mL (≈ 0.577 µM). In data set [2], this molecule returned a CC50 of 217 µg/mL (≈ 696 µM).

Consider `CC(=O)c1cccnc1NC(C)c1c(Cl)cccc1Cl` (racemic) [compound 11, (±)-1-[2-[[1-(2,6-dichlorophenyl)ethyl]amino]-3-pyridinyl]ethanone], for which, in data set [1], the “SI (selectivity index, ratio of CD50 to ED50)” value was determined as 463 and the EC50 came out at 0.068 µg/mL (≈ 0.22 µM). Further, the 50% cytotoxic concentration (CC50) in data set [2] is 31.4 µg/mL (≈ 102 µM).

With `N#Cc1cccnc1NC(C(N)=O)c1c(Cl)cccc1Cl` (stereo not drawn) [compound 2], in data set [1], the “SI (selectivity index, ratio of CD50 to ED50)” value was 243 and the EC50 came out at 0.1 µg/mL (≈ 0.311 µM). Further, in data set [2], half-maximal cytotoxicity (CC50) was put at 25.3 µg/mL (≈ 78.8 µM).

In the case of `CCn1nc(C)c([N+](=O)[O-])c1NC(C(N)=O)c1c(Cl)cccc1Cl` (stereo not drawn) [compound 3], in data set [1], the “SI (selectivity index, ratio of CD50 to ED50)” value is on record as 61 and the EC50 came to 2 µg/mL (≈ 5.37 µM). This molecule returned a CC50 in data set [2] of 122 µg/mL (≈ 327 µM).

Consider `CC(=O)c1nccnc1NC(C(N)=O)c1c(Cl)cccc1Cl` (stereo not drawn) [compound 7], for which, in data set [1], the “SI (selectivity index, ratio of CD50 to ED50)” value is 41.5 and the EC50 came out at 3.8 µg/mL (≈ 11.2 µM). The CC50 in data set [2] came to 157 µg/mL (≈ 462 µM).

Consider `CC(=O)c1nccnc1NC(C)c1c(Cl)cccc1Cl` (stereo not drawn) [compound 12], for which, in data set [1], the “SI (selectivity index, ratio of CD50 to ED50)” value is 289 and the EC50 turned out to be 0.013 µg/mL (≈ 0.0419 µM). In data set [2], the CC50 worked out at 3.82 µg/mL (≈ 12.3 µM).

Turning to `CC(Nc1ncccc1[N+](=O)[O-])c1c(Cl)cccc1Cl` (stereo not drawn) [compound 13], in data set [1], the “SI (selectivity index, ratio of CD50 to ED50)” value is given as 33 and the EC50 was 0.0073 µg/mL (≈ 0.0234 µM). Also, the CC50 in data set [2] stood at 0.24 µg/mL (≈ 0.769 µM).
